The experiment relates to multidrug-resistant M. tuberculosis Peru isolate. As to the kind of experiment: microbe, parasite or virus in culture. The conditions noted are these: Mycobacterium tuberculosis, 336 h, read-out: MIC MDR-TB. Type of experiment: cell-based.

SMILES strings stand for the structures. In brackets after ≈: the same amount, converted by molar mass. A value given as a limit tells only on which side of the number the result lay.

Take `O=C(/C=C/c1ccc([N+](=O)[O-])o1)c1ccc(N2CCCCC2)cc1` [Compound 2]: the MIC came out at 1.95 µg/mL (≈ 5.98 µM).

Regarding `O=[N+]([O-])c1cn2c(n1)OC[C@@H](OCc1ccc(OC(F)(F)F)cc1)C2` [Pretomanid], the MIC came out at 0.488 µg/mL (≈ 1.36 µM). Take `CC[C@@H](CO)NCCN[C@@H](CC)CO` [Ethambutol]: the MIC worked out at 8 µg/mL (≈ 39.2 µM). Consider `CN(Cc1cnc2nc(N)nc(N)c2n1)c1ccc(C(=O)N[C@@H](CCC(=O)O)C(=O)O)cc1` [Methotrexate, reference compound], for which the MIC stood at 250 µg/mL (≈ 550 µM).

For `CO[C@H]1/C=C/O[C@@]2(C)Oc3c(C)c(O)c4c(O)c(c(/C=N/N5CCN(C)CC5)c(O)c4c3C2=O)NC(=O)/C(C)=C\C=C\[C@H](C)[C@H](O)[C@@H](C)[C@@H](O)[C@@H](C)[C@H](OC(C)=O)[C@@H]1C` [Rifampicin], the MIC was more than 500 µg/mL.

Take `CCN(CC)c1ccc(C(=O)/C=C/c2ccc([N+](=O)[O-])o2)cc1` [Compound 3]: the MIC worked out at 0.488 µg/mL (≈ 1.55 µM). As for `O=C(/C=C/c1ccc([N+](=O)[O-])o1)c1ccc(N2CCOCC2)cc1` [Compound 1], the MIC amounted to 0.976 µg/mL (≈ 2.97 µM).

Take `NNC(=O)c1ccncc1` [Isoniazid, reference compound]: the MIC was more than 500 µg/mL.

The values are drawn from publication PMC7400135, “3-(5-Nitrofuran-2-yl)prop-2-en-1-one Derivatives, with Potent Antituberculosis Activity, Inhibit A Novel Therapeutic Target, Arylamine N-acetyltransferase, in Mycobacteria” (Antibiotics, 2020).
